{"source": "ChEMBL document CHEMBL1201862", "about": "“PubChem BioAssay data set” (2004)", "key": {"[1]": {"molecular_target": "Nuclear receptor subfamily 5 group A member 2 (Homo sapiens, UniProt O00482)", "sequence (O00482 whole entry)": "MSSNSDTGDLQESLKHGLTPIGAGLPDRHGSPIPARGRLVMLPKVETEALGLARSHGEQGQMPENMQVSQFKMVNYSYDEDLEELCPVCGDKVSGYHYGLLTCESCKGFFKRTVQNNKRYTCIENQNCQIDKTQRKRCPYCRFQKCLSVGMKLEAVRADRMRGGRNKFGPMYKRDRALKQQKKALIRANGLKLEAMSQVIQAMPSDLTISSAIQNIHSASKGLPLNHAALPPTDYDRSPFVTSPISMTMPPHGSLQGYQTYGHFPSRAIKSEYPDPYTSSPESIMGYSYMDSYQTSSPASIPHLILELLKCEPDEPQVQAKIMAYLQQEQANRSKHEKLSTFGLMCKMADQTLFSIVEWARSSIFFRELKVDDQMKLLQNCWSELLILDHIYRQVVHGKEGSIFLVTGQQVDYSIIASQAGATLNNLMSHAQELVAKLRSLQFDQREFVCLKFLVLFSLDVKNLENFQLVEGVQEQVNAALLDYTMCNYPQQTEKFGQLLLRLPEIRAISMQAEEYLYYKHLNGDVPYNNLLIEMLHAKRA", "assay_type": "functional, cell-based"}, "Steroidogenic factor 1": {"molecular_target": "Steroidogenic factor 1 (Homo sapiens, UniProt Q13285)", "sequence (Q13285 whole entry)": "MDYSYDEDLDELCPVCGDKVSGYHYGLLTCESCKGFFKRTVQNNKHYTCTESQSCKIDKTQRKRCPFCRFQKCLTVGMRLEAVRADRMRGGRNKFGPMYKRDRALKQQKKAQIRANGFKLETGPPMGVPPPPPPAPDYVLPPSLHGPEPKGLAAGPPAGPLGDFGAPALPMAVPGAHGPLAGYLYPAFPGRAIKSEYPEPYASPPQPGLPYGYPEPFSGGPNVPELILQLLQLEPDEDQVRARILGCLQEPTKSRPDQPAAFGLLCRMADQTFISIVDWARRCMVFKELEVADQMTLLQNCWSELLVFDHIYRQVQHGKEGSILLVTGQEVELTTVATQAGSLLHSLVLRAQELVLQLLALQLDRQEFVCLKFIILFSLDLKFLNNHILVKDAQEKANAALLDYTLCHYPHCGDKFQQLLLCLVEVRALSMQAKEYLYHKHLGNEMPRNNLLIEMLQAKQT", "assay": "Counterscreen for inverse agonists of the liver receptor homolog-1 (LRH-1; NR5A2): Luminescence-based cell-based high throughput dose response assay to identify inverse agonists of the Steroidogenic Factor 1 Nuclear Receptor (SF1; NR5A1).", "assay_type": "functional"}, "[2]": {"assay": "nonselective StAR promoter luciferase inhibitors – cell-based, luminescence, luciferase reporter, counter-screen for LRH-1 inverse agonist project, dose response (AID 651969)", "assay_type": "functional"}, "[3]": {"molecular_target": "Tyrosine-protein phosphatase non-receptor type 5 (Homo sapiens, UniProt P54829)", "sequence (P54829 whole entry)": "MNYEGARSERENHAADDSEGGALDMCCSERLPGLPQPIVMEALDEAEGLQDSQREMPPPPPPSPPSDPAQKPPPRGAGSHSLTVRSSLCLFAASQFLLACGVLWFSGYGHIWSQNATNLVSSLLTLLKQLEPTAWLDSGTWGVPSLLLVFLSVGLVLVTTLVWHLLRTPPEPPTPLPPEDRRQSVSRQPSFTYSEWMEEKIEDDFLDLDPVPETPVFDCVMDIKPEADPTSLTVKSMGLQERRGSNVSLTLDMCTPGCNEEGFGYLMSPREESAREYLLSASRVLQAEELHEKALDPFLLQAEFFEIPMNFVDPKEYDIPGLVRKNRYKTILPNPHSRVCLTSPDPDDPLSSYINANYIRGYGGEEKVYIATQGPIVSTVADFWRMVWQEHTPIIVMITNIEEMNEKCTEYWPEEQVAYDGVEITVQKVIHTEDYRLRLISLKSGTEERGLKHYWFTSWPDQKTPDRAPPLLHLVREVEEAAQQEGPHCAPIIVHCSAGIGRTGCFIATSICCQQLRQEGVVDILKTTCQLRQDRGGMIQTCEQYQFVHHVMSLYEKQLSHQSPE", "assay": "PTPN5 enzyme inhibition – biochemical, fluorescence intensity, uHTS hits, confirmation (AID 602372)", "assay_type": "functional", "settings": "read-out: IC50_Mean"}, "[4]": {"molecular_target": "Tyrosine-protein phosphatase non-receptor type 11 (Homo sapiens, UniProt Q06124)", "sequence (Q06124 whole entry)": "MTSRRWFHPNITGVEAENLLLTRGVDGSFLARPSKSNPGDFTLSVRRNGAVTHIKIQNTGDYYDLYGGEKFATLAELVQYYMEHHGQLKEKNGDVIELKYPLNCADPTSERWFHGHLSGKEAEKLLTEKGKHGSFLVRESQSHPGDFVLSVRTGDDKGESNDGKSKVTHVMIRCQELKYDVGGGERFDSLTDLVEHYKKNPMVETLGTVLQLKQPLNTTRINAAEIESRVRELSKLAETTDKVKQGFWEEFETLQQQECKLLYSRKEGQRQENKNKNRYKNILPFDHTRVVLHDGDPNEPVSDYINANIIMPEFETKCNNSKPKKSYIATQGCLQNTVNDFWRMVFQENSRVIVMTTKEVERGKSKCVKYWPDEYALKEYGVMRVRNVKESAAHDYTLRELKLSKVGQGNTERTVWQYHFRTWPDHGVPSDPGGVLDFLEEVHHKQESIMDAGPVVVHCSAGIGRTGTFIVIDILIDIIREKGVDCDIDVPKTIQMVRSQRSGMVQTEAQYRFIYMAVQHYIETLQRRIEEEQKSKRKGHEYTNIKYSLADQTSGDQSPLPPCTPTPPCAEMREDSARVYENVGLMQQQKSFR", "assay": "PTPN11 enzyme inhibitors – biochemical, selectivity assay for STEP inhibitor project, dose response (AID 602367)", "assay_type": "functional", "settings": "read-out: IC50_Mean"}, "[5]": {"molecular_target": "Dual specificity protein phosphatase 3 (Homo sapiens, UniProt P51452)", "sequence (P51452 whole entry)": "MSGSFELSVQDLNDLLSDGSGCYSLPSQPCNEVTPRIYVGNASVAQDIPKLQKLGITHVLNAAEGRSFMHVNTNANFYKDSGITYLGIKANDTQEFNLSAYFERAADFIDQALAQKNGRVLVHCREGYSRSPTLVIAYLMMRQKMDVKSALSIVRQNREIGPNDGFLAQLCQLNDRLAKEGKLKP", "assay": "VHR phosphatase inhibition, dose response, selectivity assay for STEP inhibitor project, biochemical (AID 602374)", "assay_type": "functional", "settings": "read-out: IC50_Mean"}, "[6]": {"molecular_target": "T1, Tyrosine-protein phosphatase non-receptor type 22 (Homo sapiens, UniProt Q9Y2R2)", "T1 sequence (Q9Y2R2 whole entry)": "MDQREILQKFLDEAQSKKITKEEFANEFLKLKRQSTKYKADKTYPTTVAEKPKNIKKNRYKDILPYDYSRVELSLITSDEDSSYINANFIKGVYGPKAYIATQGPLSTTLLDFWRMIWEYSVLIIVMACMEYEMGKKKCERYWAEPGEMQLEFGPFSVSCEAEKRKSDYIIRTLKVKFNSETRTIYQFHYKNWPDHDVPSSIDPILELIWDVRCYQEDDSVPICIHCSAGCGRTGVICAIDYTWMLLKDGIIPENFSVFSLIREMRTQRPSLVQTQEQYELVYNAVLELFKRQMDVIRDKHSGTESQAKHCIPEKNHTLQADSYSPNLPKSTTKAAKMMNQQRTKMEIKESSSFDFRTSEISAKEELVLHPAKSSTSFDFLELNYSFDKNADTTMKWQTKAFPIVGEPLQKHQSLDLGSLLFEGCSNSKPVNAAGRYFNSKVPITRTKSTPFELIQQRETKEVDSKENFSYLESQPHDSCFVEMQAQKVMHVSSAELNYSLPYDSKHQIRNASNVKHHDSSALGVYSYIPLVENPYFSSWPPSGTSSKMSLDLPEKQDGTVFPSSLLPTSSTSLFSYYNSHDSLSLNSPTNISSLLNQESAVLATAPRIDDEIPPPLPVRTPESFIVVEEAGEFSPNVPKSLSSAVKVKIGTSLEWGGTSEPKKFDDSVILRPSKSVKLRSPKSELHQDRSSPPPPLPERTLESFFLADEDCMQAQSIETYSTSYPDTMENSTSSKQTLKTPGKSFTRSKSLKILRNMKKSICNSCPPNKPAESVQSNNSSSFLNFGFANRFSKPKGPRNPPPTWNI", "assay": "lymphoid phosphatase LYP inhibitors – biochemical, selectivity assay for STEP inhibitor project, dose response (AID 624241)", "assay_type": "functional"}, "Beta-lactamase [7]": {"molecular_target": "T2, Beta-lactamase (Pseudomonas aeruginosa, UniProt Q79MP6)", "T2 sequence (Q79MP6 whole entry)": "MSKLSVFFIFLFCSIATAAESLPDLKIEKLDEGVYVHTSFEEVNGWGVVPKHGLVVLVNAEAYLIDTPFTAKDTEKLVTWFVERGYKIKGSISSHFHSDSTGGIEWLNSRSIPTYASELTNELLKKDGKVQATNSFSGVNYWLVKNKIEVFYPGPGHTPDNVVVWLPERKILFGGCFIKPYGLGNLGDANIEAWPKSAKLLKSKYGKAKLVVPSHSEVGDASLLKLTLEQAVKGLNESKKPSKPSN", "assay": "[…] counterscreen for selective VIM-2 inhibitors: dose response biochemical high throughput screening assay to identify inhibitors of IMP-1 metallo-beta-lactamase."}, "Beta-lactamase [8]": {"molecular_target": "Beta-lactamase (Salmonella choleraesuis (strain SC-B67), UniProt Q5J463)", "sequence (Q5J463 whole entry)": "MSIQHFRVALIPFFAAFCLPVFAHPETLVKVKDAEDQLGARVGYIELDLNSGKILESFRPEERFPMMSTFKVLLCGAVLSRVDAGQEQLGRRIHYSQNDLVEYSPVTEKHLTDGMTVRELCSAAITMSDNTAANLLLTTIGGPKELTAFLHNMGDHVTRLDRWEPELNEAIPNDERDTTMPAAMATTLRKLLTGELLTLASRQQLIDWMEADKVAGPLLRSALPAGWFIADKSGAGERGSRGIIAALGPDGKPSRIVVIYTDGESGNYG", "assay": "Epi-absorbance-based counterscreen for selective VIM-2 inhibitors: dose response biochemical high throughput screening assay to identify inhibitors of TEM-1 serine-beta-lactamase."}, "Beta-lactamase [9]": {"molecular_target": "T2, Beta-lactamase", "assay": "inhibition of IMP-1 beta-lactamase activity – biochemical, epi-absorbance, selectivity assay for VIM-2 inhibitor project, dose response (AID 1920)"}, "[10]": {"molecular_target": "T3, Sentrin-specific protease 8 (Homo sapiens, UniProt Q96LD8)", "T3 sequence (Q96LD8 whole entry)": "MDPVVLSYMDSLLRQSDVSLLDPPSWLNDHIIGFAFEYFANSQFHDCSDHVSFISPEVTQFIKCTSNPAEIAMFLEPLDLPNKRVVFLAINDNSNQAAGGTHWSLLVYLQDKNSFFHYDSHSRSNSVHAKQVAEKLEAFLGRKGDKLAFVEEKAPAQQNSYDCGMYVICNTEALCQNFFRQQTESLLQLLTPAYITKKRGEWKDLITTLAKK", "assay_type": "functional"}, "[11]": {"molecular_target": "T3, Sentrin-specific protease 8", "assay_type": "functional", "remark": "listed apart in the source"}, "Caspase-3": {"molecular_target": "T4, Caspase-3 (Homo sapiens, UniProt P42574)", "T4 sequence (P42574 whole entry)": "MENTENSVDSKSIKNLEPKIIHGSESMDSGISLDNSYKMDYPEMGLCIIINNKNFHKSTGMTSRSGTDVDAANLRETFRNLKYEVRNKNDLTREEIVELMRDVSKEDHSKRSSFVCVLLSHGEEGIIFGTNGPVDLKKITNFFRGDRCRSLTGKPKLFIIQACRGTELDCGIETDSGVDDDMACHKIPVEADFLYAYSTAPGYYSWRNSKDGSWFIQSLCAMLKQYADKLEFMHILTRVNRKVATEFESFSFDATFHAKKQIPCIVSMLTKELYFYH", "assay": "Dose-response confirmation of uHTS inhibitor hits of Sentrin-Specific Protease 8 in a Caspase-3 Fluorescence assay.", "assay_type": "functional"}, "[12]": {"molecular_target": "Matrix metalloproteinase-14 (Homo sapiens, UniProt P50281)", "assay": "Dose Response confirmation of uHTS hits for a small molecule inhibitors of MT1-MMP activation in a fluorescence assay set 1.", "assay_type": "functional"}, "Protein Wnt-3a": {"molecular_target": "Protein Wnt-3a (Mus musculus, UniProt P27467)", "sequence (P27467 whole entry)": "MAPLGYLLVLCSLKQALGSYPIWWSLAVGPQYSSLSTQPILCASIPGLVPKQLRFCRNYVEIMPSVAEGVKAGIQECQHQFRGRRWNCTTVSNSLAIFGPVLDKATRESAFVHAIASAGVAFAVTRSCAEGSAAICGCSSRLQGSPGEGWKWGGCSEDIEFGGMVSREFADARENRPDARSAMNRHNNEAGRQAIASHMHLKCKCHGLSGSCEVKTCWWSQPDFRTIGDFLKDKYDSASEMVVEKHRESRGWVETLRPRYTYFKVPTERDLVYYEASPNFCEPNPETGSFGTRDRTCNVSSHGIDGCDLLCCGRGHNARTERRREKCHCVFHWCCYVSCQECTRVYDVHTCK", "assay": "antagonism of Wnt3a pathway luciferase reporter – Wnt-LIGHT cells, luminescence, selectivity assay for Gli-SUFU antagonist project, dose response (AID 651570);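 note: Wnt-LIGHT reporter cells stimulated with conditioned medium from Wnt3a-producing cells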", "assay_type": "functional", "settings": "read-out: IC50_Mean"}, "[13]": {"assay": "microbe, parasite or virus in culture", "assay_type": "functional", "settings": "Mycobacterium tuberculosis"}}, "note": "The source made the active and inactive calls.", "data": [{"smiles": "COc1cc([N+](=O)[O-])ccc1NC(=O)Cn1ccsc1=N", "values": [{"measurement": "IC50", "setting": "[1]", "value": "35.9 µM (inactive)"}, {"measurement": "IC50", "setting": "Steroidogenic factor 1", "value": "1.95 µM (active)"}, {"measurement": "IC50", "setting": "[2]", "value": "35.9 µM (inactive)"}]}, {"smiles": "N#CNc1nc(O)cc(=O)[nH]1", "values": [{"measurement": "IC50", "setting": "[3]", "value": "7.69 µM (active)"}, {"measurement": "IC50", "setting": "[4]", "value": "2.2 µM (active)"}, {"measurement": "IC50", "setting": "[5]", "value": "1.24 µM (active)"}, {"measurement": "IC50", "setting": "[6]", "value": "11.5 µM (active)"}]}, {"smiles": "O=C(c1ccco1)N1N=C(c2ccc(Cl)cc2)CC1c1ccco1", "note": "(stereo unspecified)", "values": [{"measurement": "IC50", "setting": "Beta-lactamase [7]", "value": "> 59.6 µM (inactive)"}, {"measurement": "IC50", "setting": "Beta-lactamase [8]", "value": "> 59.6 µM (inactive)"}, {"measurement": "IC50", "setting": "Beta-lactamase [9]", "value": "> 59.6 µM (inactive)"}]}, {"smiles": "O=C(Cn1nc(Cc2ccncc2)c2ccccc2c1=O)N1CCc2ccccc2C1", "values": [{"measurement": "IC50", "setting": "[10]", "value": "6.46 µM (active)"}, {"measurement": "IC50", "setting": "[11]", "value": "3.48 µM (active)"}, {"measurement": "IC50", "setting": "Caspase-3", "value": "13.3 µM (active)"}]}, {"smiles": "COc1ccccc1C(=O)NC(=S)/C=C1/N(C)c2ccccc2C1(C)C", "values": [{"measurement": "IC50", "setting": "[12]", "value": "> 80 µM (inactive)"}, {"measurement": "IC50", "setting": "Protein Wnt-3a", "value": "15.2 µM (active)"}, {"measurement": "CC50", "setting": "[13]", "value": "> 40 µM (active)"}]}]}
